{"source": "patent US20200308170A1", "about": "“KRAS G12C INHIBITORS” (Mirati Therapeutics, Inc., priority 2017, published 2020)", "data": [{"target": "T1, KRas G12C (Homo sapiens, UniProt P01116, C118S/C51S/C80L/G12C)", "T1 construct": "GDP-loaded K-Ras (1-169) G12C, C51S, C80L, C118S", "experiment": "KRas G12C Modification Assay (LCMS detection of covalent adduct)", "assay_type": "binding", "settings": "5 μM concentration for 3 hours; LC/MS of intact protein; higher POC = higher degree of modification", "procedure": "A 10 μL aliquot of each protein solution was then transferred to a 384 well microtiter plate. Initial compound stocks were generated at fifty times their desired final assay concentration in DMSO.\nExemplary compounds of Formula (II) were diluted 25-fold into K-Ras Assay Buffer to a final of two times their final concentration. A 10 μL aliquot of each diluted compound solution was then added to each of the protein solutions in the microtiter plate to initiate reaction. […] At each time point, the reactions were quenched with 20 μL of a 25 mM acetic acid solution. […] Once all reactions were quenched, the plates were heat sealed and the samples were injected into a LC/MS system for data acquisition.\nSamples were injected in their liquid phase onto a C-3 reverse phase column to remove assay buffer and prepare the samples for mass spectrometer. The proteins were eluted from the column using an acetonitrile gradient and fed directly into the mass analyzer. Initial raw data analysis took place in Agilent MassHunter software immediately post data acquisition.\nRaw data analysis of the intact protein was exclusively a deconvolution of the multiple charge states of each protein in solution using a maximum entropy deconvolution provided in Mass Hunter. To minimize complexity, only the data over limited mass ranges were considered for analysis, with a minimum of one Dalton mass step intervals. The heights of all masses identified during raw data analysis were exported to be further analyzed in Spotfire® data analysis software.\nFinal data analysis was a multistep process in the Spotfire® data analysis software package. Briefly, each protein mass was calculated as a percent of the total signal of that sample, that percentage was then normalized to the percentage of signal of the protein in the absence of reactive compounds. Those normalized signals were reported as normalized percent of control (POC). […] Key: “A”≤25% POC; “B”>25% POC−≤50% POC; “C”>50% POC and ND=not determined.", "values": [{"smiles": "C=C(C(=O)N1CCN(c2nc(OC[C@@H]3CCCN3C)nc3c2CCN(c2cccc4cccc(C)c24)C3)C[C@@H]1CC#N)C(F)(F)F", "note": "[Example 21, 2-((S)-4-(7-(8-methylnaphthalen-1-yl)-2-(((S)-1-methylpyrrolidin-2-yl)methoxy)-5,6,7,8-tetrahydropyrido[3,4-d]pyrimidin-4-yl)-1-(2-(trifluoromethyl)acryloyl)piperazin-2-yl)acetonitrile]", "POC (normalized percent of control; degree of covalent modification of KRas G12C)": "A (“A”≤25% POC)"}, {"smiles": "Cc1cccc2cccc(N3CCc4c(nc(OC[C@@H]5CCCN5C)nc4N4CCN(C(=O)/C=C/c5ccccn5)[C@@H](CC#N)C4)C3)c12", "note": "[Example 22, 2-((S)-4-(7-(8-methylnaphthalen-1-yl)-2-(((S)-1-methylpyrrolidin-2-yl)methoxy)-5,6,7,8-tetrahydropyrido[3,4-d]pyrimidin-4-yl)-1-((E)-3-(pyridin-2-yl)acryloyl)piperazin-2-yl)acetonitrile]", "POC (normalized percent of control; degree of covalent modification of KRas G12C)": "C (“C”>50% POC)"}, {"smiles": "Cc1cccc2cccc(N3CCc4c(nc(OC[C@@H]5CCCN5C)nc4N4CCN(C(=O)/C=C/c5cnn(C)c5)[C@@H](CC#N)C4)C3)c12", "note": "[Example 23, 2-((S)-1-((E)-3-(1-methyl-1H-pyrazol-4-yl)acryloyl)-4-(7-(8-methylnaphthalen-1-yl)-2-(((S)-1-methylpyrrolidin-2-yl)methoxy)-5,6,7,8-tetrahydropyrido[3,4-d]pyrimidin-4-yl)piperazin-2-yl)acetonitrile]", "POC (normalized percent of control; degree of covalent modification of KRas G12C)": "C (“C”>50% POC)"}, {"smiles": "Cc1cccc2cccc(N3CCc4c(nc(OC[C@@H]5CCCN5C)nc4N4CCN(C(=O)/C=C/C(F)F)[C@@H](CC#N)C4)C3)c12", "note": "[Example 24, 2-((S)-1-((E)-4,4-difluorobut-2-enoyl)-4-(7-(8-methylnaphthalen-1-yl)-2-(((S)-1-methylpyrrolidin-2-yl)methoxy)-5,6,7,8-tetrahydropyrido[3,4-d]pyrimidin-4-yl)piperazin-2-yl)acetonitrile]", "POC (normalized percent of control; degree of covalent modification of KRas G12C)": "C (“C”>50% POC)"}, {"smiles": "Cc1cccc2cccc(N3CCc4c(nc(OC[C@@H]5CCCN5C)nc4N4CCN(C(=O)C5=CC(=O)CC5)[C@@H](CC#N)C4)C3)c12", "note": "[Example 26, 2-((S)-4-(7-(8-methylnaphthalen-1-yl)-2-(((S)-1-methylpyrrolidin-2-yl)methoxy)-5,6,7,8-tetrahydropyrido[3,4-d]pyrimidin-4-yl)-1-(3-oxocyclopent-1-ene-1-carbonyl)piperazin-2-yl)acetonitrile]", "POC (normalized percent of control; degree of covalent modification of KRas G12C)": "C (“C”>50% POC)"}, {"smiles": "Cc1cccc2cccc(N3CCc4c(nc(OC[C@@H]5CCCN5C)nc4N4CCN(C(=O)/C=C/CCl)[C@@H](CC#N)C4)C3)c12", "note": "[Example 27, 2-((S)-1-((E)-4-chlorobut-2-enoyl)-4-(7-(8-methylnaphthalen-1-yl)-2-(((S)-1-methylpyrrolidin-2-yl)methoxy)-5,6,7,8-tetrahydropyrido[3,4-d]pyrimidin-4-yl)piperazin-2-yl)acetonitrile]", "POC (normalized percent of control; degree of covalent modification of KRas G12C)": "C (“C”>50% POC)"}, {"smiles": "Cc1cccc2cccc(N3CCc4c(nc(OC[C@@H]5CCCN5C)nc4N4CCN(C(=O)/C=C/C(=O)N(C)C)[C@@H](CC#N)C4)C3)c12", "note": "[Example 28, (E)-4-((S)-2-(cyanomethyl)-4-(7-(8-methylnaphthalen-1-yl)-2-(((S)-1-methylpyrrolidin-2-yl)methoxy)-5,6,7,8-tetrahydropyrido[3,4-d]pyrimidin-4-yl)piperazin-1-yl)-N,N-dimethyl-4-oxobut-2-enamide]", "POC (normalized percent of control; degree of covalent modification of KRas G12C)": "C (“C”>50% POC)"}, {"smiles": "Cc1cccc2cccc(N3CCc4c(nc(OC[C@@H]5CCCN5C)nc4N4CCN(C(=O)/C=C/C(N)=O)[C@@H](CC#N)C4)C3)c12", "note": "[Example 29, (E)-4-((S)-2-(cyanomethyl)-4-(7-(8-methylnaphthalen-1-yl)-2-(((S)-1-methylpyrrolidin-2-yl)methoxy)-5,6,7,8-tetrahydropyrido[3,4-d]pyrimidin-4-yl)piperazin-1-yl)-4-oxobut-2-enamide]", "POC (normalized percent of control; degree of covalent modification of KRas G12C)": "C (“C”>50% POC)"}, {"smiles": "Cc1cccc2cccc(N3CCc4c(nc(OC[C@@H]5CCCN5C)nc4N4CCN(C(=O)/C=C/C#N)[C@@H](CC#N)C4)C3)c12", "note": "[Example 30, (E)-4-((S)-2-(cyanomethyl)-4-(7-(8-methylnaphthalen-1-yl)-2-(((S)-1-methylpyrrolidin-2-yl)methoxy)-5,6,7,8-tetrahydropyrido[3,4-d]pyrimidin-4-yl)piperazin-1-yl)-4-oxobut-2-enenitrile]", "POC (normalized percent of control; degree of covalent modification of KRas G12C)": "C (“C”>50% POC)"}, {"smiles": "Cc1cccc2cccc(N3CCc4c(nc(OC[C@@H]5CCCN5C)nc4N4CCN(C(=O)/C=C\\C#N)[C@@H](CC#N)C4)C3)c12", "note": "[Example 31, (Z)-4-((S)-2-(cyanomethyl)-4-(7-(8-methylnaphthalen-1-yl)-2-(((S)-1-methylpyrrolidin-2-yl)methoxy)-5,6,7,8-tetrahydropyrido[3,4-d]pyrimidin-4-yl)piperazin-1-yl)-4-oxobut-2-enenitrile]", "POC (normalized percent of control; degree of covalent modification of KRas G12C)": "C (“C”>50% POC)"}, {"smiles": "CN(C)C/C=C(/F)C(=O)N1CCN(c2nc(OC[C@@H]3CCCN3C)nc3c2CCN(c2cccc4cccc(Cl)c24)C3)C[C@@H]1CC#N", "note": "[Example 32, 2-[(2S)-4-[7-(8-chloro-1-naphthyl)-2-[[(2S)-1-methylpyrrolidin-2-yl]methoxy]-6,8-dihydro-5H-pyrido[3,4-d]pyrimidin-4-yl]-1-[(E)-4-(dimethylamino)-2-fluoro-but-2-enoyl]piperazin-2-yl]acetonitrile]", "POC (normalized percent of control; degree of covalent modification of KRas G12C)": "C (“C”>50% POC)"}, {"smiles": "C=C(C(=O)N1CCN(c2nc(OC[C@@H]3CCCN3C)nc3c2CCN(c2cccc4cccc(Cl)c24)C3)C[C@@H]1CC#N)C(F)(F)F", "note": "[Example 33, 2-[(2S)-4-[7-(8-chloro-1-naphthyl)-2-[[(2S)-1-methylpyrrolidin-2-yl]methoxy]-6,8-dihydro-5H-pyrido[3,4-d]pyrimidin-4-yl]-1-[2-(trifluoromethyl)prop-2-enoyl]piperazin-2-yl]acetonitrile]", "POC (normalized percent of control; degree of covalent modification of KRas G12C)": "C (“C”>50% POC)"}, {"smiles": "Cc1cccc(N2CCc3c(nc(OC[C@@H]4CCCN4C)nc3N3CCN(C(=O)/C=C\\Cl)[C@@H](CC#N)C3)C2)c1C", "note": "[Example 34, 2-((S)-1-((Z)-3-chloroacryloyl)-4-(7-(2,3-dimethylphenyl)-2-(((S)-1-methylpyrrolidin-2-yl)methoxy)-5,6,7,8-tetrahydropyrido[3,4-d]pyrimidin-4-yl)piperazin-2-yl)acetonitrile]", "POC (normalized percent of control; degree of covalent modification of KRas G12C)": "C (“C”>50% POC)"}, {"smiles": "Cc1cccc2cccc(N3CCc4c(nc(OC[C@@H]5CCCN5C)nc4N4CCN(C(=O)/C=C/CF)[C@@H](CC#N)C4)C3)c12", "note": "[Example 35, 2-((S)-1-((E)-4-fluorobut-2-enoyl)-4-(7-(8-methylnaphthalen-1-yl)-2-(((S)-1-methylpyrrolidin-2-yl)methoxy)-5,6,7,8-tetrahydropyrido[3,4-d]pyrimidin-4-yl)piperazin-2-yl)acetonitrile]", "POC (normalized percent of control; degree of covalent modification of KRas G12C)": "C (“C”>50% POC)"}, {"smiles": "C=C(F)C(=O)N1CCN(c2nc(OC[C@@H]3CCCN3C)nc3c2CCN(c2cccc4cccc(C)c24)C3)C[C@@H]1CC#N", "note": "[Example 36, 2-((S)-1-(2-fluoroacryloyl)-4-(7-(8-methylnaphthalen-1-yl)-2-(((S)-1-methylpyrrolidin-2-yl)methoxy)-5,6,7,8-tetrahydropyrido[3,4-d]pyrimidin-4-yl)piperazin-2-yl)acetonitrile]", "POC (normalized percent of control; degree of covalent modification of KRas G12C)": "C (“C”>50% POC)"}, {"smiles": "Cc1cccc2cccc(N3CCc4c(nc(OC[C@@H]5CCCN5C)nc4N4CCN(C(=O)C#CCO)[C@@H](CC#N)C4)C3)c12", "note": "[Example 37, 2-((S)-1-(4-hydroxybut-2-ynoyl)-4-(7-(8-methylnaphthalen-1-yl)-2-(((S)-1-methylpyrrolidin-2-yl)methoxy)-5,6,7,8-tetrahydropyrido[3,4-d]pyrimidin-4-yl)piperazin-2-yl)acetonitrile]", "POC (normalized percent of control; degree of covalent modification of KRas G12C)": "C (“C”>50% POC)"}, {"smiles": "Cc1cccc2cccc(N3CCc4c(nc(OC[C@@H]5CCCN5C)nc4N4CCN(C(=O)/C=C/Cn5cccn5)[C@@H](CC#N)C4)C3)c12", "note": "[Example 38, 2-((S)-1-((E)-4-(1H-pyrazol-1-yl)but-2-enoyl)-4-(7-(8-methylnaphthalen-1-yl)-2-(((S)-1-methylpyrrolidin-2-yl)methoxy)-5,6,7,8-tetrahydropyrido[3,4-d]pyrimidin-4-yl)piperazin-2-yl)acetonitrile]", "POC (normalized percent of control; degree of covalent modification of KRas G12C)": "C (“C”>50% POC)"}, {"smiles": "Cc1cccc2cccc(N3CCc4c(nc(OC[C@@H]5CCCN5C)nc4N4CCN(C(=O)/C=C/CO)[C@@H](CC#N)C4)C3)c12", "note": "[Example 39, 2-((S)-1-((E)-4-hydroxybut-2-enoyl)-4-(7-(8-methylnaphthalen-1-yl)-2-(((S)-1-methylpyrrolidin-2-yl)methoxy)-5,6,7,8-tetrahydropyrido[3,4-d]pyrimidin-4-yl)piperazin-2-yl)acetonitrile]", "POC (normalized percent of control; degree of covalent modification of KRas G12C)": "C (“C”>50% POC)"}]}]}
